# Test results reported in patent US20080004282A1, “Compositions and methods for modulating gated ion channels” (PainCeptor Pharma Corporation, priority 2006, published 2008).
# Biological target: T1, ASIC1a (Homo sapiens, UniProt P78348)
# T1 sequence (P78348 1-528): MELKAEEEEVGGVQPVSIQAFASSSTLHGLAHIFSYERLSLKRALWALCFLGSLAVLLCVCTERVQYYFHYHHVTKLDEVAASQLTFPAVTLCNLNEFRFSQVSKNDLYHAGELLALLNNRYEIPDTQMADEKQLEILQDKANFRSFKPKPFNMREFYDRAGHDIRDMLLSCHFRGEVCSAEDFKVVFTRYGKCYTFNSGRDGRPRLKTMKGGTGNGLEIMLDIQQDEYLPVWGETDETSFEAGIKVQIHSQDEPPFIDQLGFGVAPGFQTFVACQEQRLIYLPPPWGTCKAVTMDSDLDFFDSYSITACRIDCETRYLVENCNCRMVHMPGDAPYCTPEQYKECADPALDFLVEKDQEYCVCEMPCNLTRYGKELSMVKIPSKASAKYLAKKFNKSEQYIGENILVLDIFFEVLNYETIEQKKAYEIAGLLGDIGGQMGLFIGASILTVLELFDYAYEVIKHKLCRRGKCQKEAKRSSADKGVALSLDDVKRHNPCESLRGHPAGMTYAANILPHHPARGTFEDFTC
# Assay: Calcium-imaging (FLIPR) of MES-induced calcium response in ASIC1a expressing HEK293 cells
# Assay type: cell-based
# Parameters: host or cells: HEK293
# Procedure: Identification of ASIC Antagonists Using Calcium-Imaging
# ASIC1a expressing HEK293 cells are grown in culture medium (DMEM with 10% FBS), in polystyrene culture flasks (175 mm 2) at 37° C. in a humidified atmosphere of 5% CO2. Confluency of cells should be 80-90% on day of plating. Cells are rinsed with 10 ml of PBS and cells are re-suspended by addition of culture medium and trituration with a 25 ml pipette.
# The cells are seeded at a density of approximately 1×10^6 cells/ml (100 μl/well) in black-walled, clear bottom, 96-well plates pre-treated with 10 mg/l poly-D-lysin (75 μl/well for ≧30 min). Plated cells are allowed to proliferate for 24 h before loading with dye.
# Loading with Fluorescent Calcium Dye Fluo-4/AM
# Fluo-4/AM (1 mg, Molecular Probes) is dissolved in 912 μl DMSO. The Fluo-4/AM stock solution (1 mM) is diluted with culture medium to a final concentration of 2 μM (loading solution).
# The culture medium is aspirated from the wells, and 50 μl of the Fluo-4/AM loading solution is added to each well. The cells are incubated at 37° C. for 30 min.
# After the loading period, the loading solution is aspirated and the cells are washed twice with 100 μl modified Assay Buffer (145 mM NaCl, 5 mM KCl, 5 mM CaCl2, 1 mM MgCl2, 10 mM HEPES, pH 7.4) to remove extracellular dye. Following the second wash, 100 μl modified Assay Buffer is added to each well and the fluorescence is measured in FLIPR™ or FlexStation™ (Molecular Devices, USA), or any other suitable equipment known to the skilled in the art.
# Temperature: Room temperature (20-22° C.)
# First addition: 50 μl test solution at a rate of 30 μl/sec and a starting height of […]
# Second addition: 50 μl MES solution (20 mM, 5 mM final concentration) at a rate of 35 μl/sec and a starting height of 150 μl.
# Reading intervals: pre-incubation—10 sec×7 and 3 sec×3 antagonist phase—3 sec×17 and 10 sec×12
# Addition plates (compound test plate and MES plate) are placed on the right and left positions in the FLIPR tray, respectively. Cell plates are placed in the middle position and the ASIC1a program is effectuated. FLIPR will then take the appropriate measurements in accordance with the interval settings above. Fluorescence obtained after stimulation is corrected for the mean basal fluorescence (in modified Assay Buffer).
# Hit Confirmation and Characterization of Active Substances
# The MES-induced peak calcium response, in the presence of test substance, is expressed relatively to the MES response alone. Test substances that block the MES-induced calcium response are re-tested in triplicates. […]
compound,measurement,value
CCN1CCc2c(-c3cc(Cl)ccc3OC)cc(C#N)c(N)c2C1 [Compound 44],IC50,< 10 µM
